Results published in the NIST ThermoML archive (doi:10.1016/j.tca.2016.05.012).
“And” between values parts separate entries of the source, which are not always exact repeats. Equal values may be shown once. ± gives the expanded uncertainty stated by the source.

Assay: molar heat capacity at constant pressure
Conditions: 101.33 kPa, Crystal, Small sample (50 mg) DSC

With `[Pb].[Pb].[Pb].[U]` [uranium trilead] the “molar heat capacity at constant pressure” value (316.34 K) was 102.56 ± 1.8 J/K/mol and 102.48 ± 1.8 J/K/mol, the “molar heat capacity at constant pressure” value (326.01 K) was 102.76 ± 1.8 J/K/mol and 102.64 ± 1.8 J/K/mol and the “molar heat capacity at constant pressure” value (336.81 K) was 102.96 ± 1.8 J/K/mol and 102.76 ± 1.8 J/K/mol. The “molar heat capacity at constant pressure” value (346.52 K) was 102.92 ± 1.8 J/K/mol and 103.16 ± 1.8 J/K/mol, the “molar heat capacity at constant pressure” value (356.26 K) was 103 ± 1.8 J/K/mol and 103.32 ± 1.8 J/K/mol and the “molar heat capacity at constant pressure” value (366.02 K) was 103.12 ± 1.8 J/K/mol and 103.44 ± 1.8 J/K/mol. The “molar heat capacity at constant pressure” value (375.81 K) was 103.24 ± 1.8 J/K/mol and 103.6 ± 1.8 J/K/mol, the “molar heat capacity at constant pressure” value (385.63 K) was 103.36 ± 1.8 J/K/mol and 103.72 ± 1.8 J/K/mol and the “molar heat capacity at constant pressure” value (395.49 K) was 103.44 ± 1.8 J/K/mol and 103.88 ± 1.8 J/K/mol. For the same molecule, the “molar heat capacity at constant pressure” value (405.37 K) was 103.52 ± 1.8 J/K/mol and 104 ± 1.8 J/K/mol, the “molar heat capacity at constant pressure” value (415.29 K) was 104.12 ± 1.8 J/K/mol and 103.64 ± 1.8 J/K/mol and the “molar heat capacity at constant pressure” value (425.25 K) was 104.24 ± 1.8 J/K/mol and 103.72 ± 1.8 J/K/mol. For the same molecule, the “molar heat capacity at constant pressure” value (435.23 K) was 104.32 ± 1.8 J/K/mol and 103.8 ± 1.8 J/K/mol, the “molar heat capacity at constant pressure” value (445.22 K) was 104.44 ± 1.8 J/K/mol and 103.88 ± 1.8 J/K/mol and the “molar heat capacity at constant pressure” value (455.21 K) was 104.56 ± 1.8 J/K/mol and 103.96 ± 1.8 J/K/mol. The “molar heat capacity at constant pressure” value (465.2 K) was 104.64 ± 1.8 J/K/mol and 104 ± 1.8 J/K/mol, the “molar heat capacity at constant pressure” value (475.19 K) was 104.72 ± 1.8 J/K/mol and 104.08 ± 1.8 J/K/mol and the “molar heat capacity at constant pressure” value (485.18 K) was 104.8 ± 1.8 J/K/mol and 104.16 ± 1.8 J/K/mol. For the same molecule, the “molar heat capacity at constant pressure” value (495.17 K) was 104.92 ± 1.8 J/K/mol and 104.2 ± 1.8 J/K/mol, the “molar heat capacity at constant pressure” value (505.15 K) was 105 ± 1.8 J/K/mol and 104.28 ± 1.8 J/K/mol and the “molar heat capacity at constant pressure” value (515.13 K) was 105.08 ± 1.8 J/K/mol and 104.32 ± 1.8 J/K/mol. For the same molecule, the “molar heat capacity at constant pressure” value (525.11 K) was 105.12 ± 1.8 J/K/mol and 104.4 ± 1.8 J/K/mol, the “molar heat capacity at constant pressure” value (535.04 K) was 105.2 ± 1.8 J/K/mol and 104.44 ± 1.8 J/K/mol and the “molar heat capacity at constant pressure” value (544.83 K) was 105.28 ± 1.8 J/K/mol and 104.48 ± 1.8 J/K/mol. The “molar heat capacity at constant pressure” value (554.76 K) was 105.36 ± 1.8 J/K/mol and 104.52 ± 1.8 J/K/mol, the “molar heat capacity at constant pressure” value (564.58 K) was 105.4 ± 1.8 J/K/mol and 104.56 ± 1.8 J/K/mol and the “molar heat capacity at constant pressure” value (574.42 K) was 105.48 ± 1.8 J/K/mol and 104.64 ± 1.8 J/K/mol. The “molar heat capacity at constant pressure” value (584.3 K) was 105.52 ± 1.8 J/K/mol and 104.68 ± 1.8 J/K/mol, the “molar heat capacity at constant pressure” value (594.25 K) was 105.6 ± 1.8 J/K/mol and 104.72 ± 1.8 J/K/mol and the “molar heat capacity at constant pressure” value (604.13 K) was 105.64 ± 1.8 J/K/mol and 104.76 ± 1.8 J/K/mol.
